Data: the NIST ThermoML archive (doi:10.1016/j.jct.2019.04.017)

Assay: xn = mol fraction of the nth substance listed
Conditions: 96 kPa, Liquid; for electrical conductivity: Frequency=0.001 MHz, Alternating current cell with electrodes; for viscosity: Cone and plate viscometry

C1CCC2=NCCCN2CC1 [1,8-diaza-7-bicyclo[5.4.0]undecene] + OCC(O)CO
Conditions	electrical conductivity, 308.1 K [S/m]	electrical conductivity, 313.1 K [S/m]	electrical conductivity, 318.1 K [S/m]	electrical conductivity, 323.1 K [S/m]	electrical conductivity, 328.1 K [S/m]	viscosity, 318.1 K [mPa·s]	viscosity, 328.1 K [mPa·s]
x1 = 0.0501	–	–	–	–	–	294.1	152.2
x1 = 0.0502	–	0.0666	0.0795	0.0955	0.11	–	–
x1 = 0.0909	–	–	–	–	–	345.9	175
x1 = 0.0914	–	0.0785	0.0971	0.118	0.132	–	–
x1 = 0.1	–	–	0.0947	–	0.132	343	177.4
x1 = 0.1115	0.0567	0.0761	0.0924	0.107	0.129	–	–
x1 = 0.1266	0.0543	0.0699	0.0877	0.101	0.126	–	–
x1 = 0.1667	–	–	–	–	–	359.5	182.5
x1 = 0.1672	0.0468	0.0613	0.0735	0.0882	0.103	–	–
x1 = 0.2	0.0398	0.0497	0.0601	0.071	0.0859	370.7	184.3
x1 = 0.2153	–	–	–	–	–	376.5	186.8
x1 = 0.2306	–	–	–	–	–	355.8	177.8
x1 = 0.2504	0.0263	0.0335	0.041	0.0491	0.0585	–	–
x1 = 0.287	0.0194	0.0245	0.0303	0.0358	0.0432	–	–
x1 = 0.3059	–	–	–	–	–	341.7	159.5
x1 = 0.3333	–	–	–	–	–	316.5	155
x1 = 0.3338	0.0137	0.0158	0.0192	0.0233	0.0271	–	–
x1 = 0.4003	0.00571	0.00702	0.00895	0.0107	0.0131	–	–
x1 = 0.4011	–	–	–	–	–	279.6	138.5
x1 = 0.5	0.00128	0.00169	0.00221	0.00279	0.00347	223.8	105.4
x1 = 0.5632	–	–	–	–	–	169.8	83.62
x1 = 0.5656	0.000502	0.000644	0.000939	0.00113	0.0015	–	–
x1 = 0.625	–	–	–	–	–	109	57.48
x1 = 0.6255	0.000251	0.00034	0.000466	0.000604	0.0008	–	–
x1 = 0.75	0.000346	–	0.000559	–	0.000826	43.75	26.15
x1 = 0.753	0.000346	0.000447	0.000559	0.000667	0.000826	–	–
x1 = 0.8333	0.000614	–	0.00087	–	0.00115	20.71	13.46
x1 = 0.8334	0.000614	0.00076	0.00087	0.00102	0.00115	–	–
x1 = 0.9094	0.000788	0.000915	0.00101	0.00111	0.0012	–	–
x1 = 0.95	0.000791	0.000857	0.000949	0.00104	0.00112	–	–
x1 = 0.975	0.000668	0.000719	0.000789	0.000841	0.000928	–	–
x1 = 1	0.00032	0.000356	0.000382	0.000423	0.000444	6.08	4.91
